# Target: human PDE4B1 (Homo sapiens (Human), UniProt Q07343)
# Experiment: cAMP HTRF assay to determine the activity of hPDE4B1
# Format: biochemical
# Conditions: IC50 inhibition of PDE4B; human recombinant PDE4B1, cAMP HTRF assay
# Method: Biological Testing cAMP HTRF® Assay to Determine the Activity of hPDE4B1
# The inhibiting effect of the compounds on the enzyme activity of human PDE4B1 was measured by the quantification of 5′-adenosine monophosphate (5′-AMP), which is formed from 3′,5′-cyclic adenosine monophosphate (cAMP). Human recombinant enzyme, expressed in Sf9 cells, and the HTRF (homogeneous time-resolved fluorescence) detection method were used in the assay.
# The test compound or water (control) was mixed with the human recombinant PDE4B1 enzyme (4.8 U) in a buffer consisting of 44.4 mM tris-HCl, 5.28 mM MgCl2, 2.64 mM DTT and 0.044% Tween 20 (pH 7.8). After adding the cAMP enzyme substrate (final concentration 40 nM), the mixture was incubated for 30 minutes at room temperature. Then a fluorescence acceptor (Dye2 marked with cAMP), a fluorescence donor (anti-cAMP antibody marked with a europium cryptate) and the non-specific phosphodiesterase inhibitor IBMX (3-isobutyl-1-methylxanthine; final concentration 1 mM) were added. After 60 min the fluorescence transfer, which correlates with the amount of remaining cAMP, was measured with a microplate reader (Rubystar, BMG) at λex=337 nm, λem=620 nm and λem=665 nm. The enzyme activity was calculated from the quotient formed from the measured signal at 665 nm and that at 620 nm. The result was expressed as the percentage inhibition of enzyme activity of the control (without PDE4 inhibitor). The enzyme was omitted for measurement of the basal control.
# [N. Saldou et al., Comparison of recombinant human PDE4 isoforms: interaction with substrate and inhibitors, Cell. Signal. Vol. 10, No. 6, 427-440, 1998]. Several compounds according to the invention are tested in the above-described assay.
# Chain of human PDE4B1 (Q07343 whole entry): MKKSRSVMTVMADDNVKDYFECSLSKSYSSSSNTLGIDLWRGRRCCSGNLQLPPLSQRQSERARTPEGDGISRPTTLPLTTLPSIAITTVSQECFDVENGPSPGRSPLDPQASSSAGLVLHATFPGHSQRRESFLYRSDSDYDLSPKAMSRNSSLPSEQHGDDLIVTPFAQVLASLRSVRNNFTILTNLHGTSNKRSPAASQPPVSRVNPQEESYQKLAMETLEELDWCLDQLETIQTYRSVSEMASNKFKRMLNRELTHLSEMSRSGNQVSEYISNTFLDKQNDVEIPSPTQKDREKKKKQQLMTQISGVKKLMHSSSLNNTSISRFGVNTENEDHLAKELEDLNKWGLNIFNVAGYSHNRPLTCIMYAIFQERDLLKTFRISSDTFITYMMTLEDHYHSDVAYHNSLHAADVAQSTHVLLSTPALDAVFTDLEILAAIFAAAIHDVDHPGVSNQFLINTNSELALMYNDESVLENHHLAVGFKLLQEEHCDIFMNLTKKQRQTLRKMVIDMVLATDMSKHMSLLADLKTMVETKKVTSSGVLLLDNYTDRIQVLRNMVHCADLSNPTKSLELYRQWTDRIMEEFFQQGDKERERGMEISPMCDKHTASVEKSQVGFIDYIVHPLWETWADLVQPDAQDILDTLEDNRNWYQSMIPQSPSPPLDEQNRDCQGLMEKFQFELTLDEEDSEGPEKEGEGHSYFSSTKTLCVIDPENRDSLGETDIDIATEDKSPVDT
row,IC50 [µM],Compound
1,< 0.1,"CN1CCN(C(=O)c2ccc3c(c2)N(c2ncc(-c4ccccc4F)cn2)CC32CC2)CC1 [Compound 60, [1-[5-(2-Fluorophenyl)-pyrimidin-2-yl]-spiro[1,2-dihydro-indole-3,1′-cyclopropane]-6-yl]-(4-methyl-piperazin-1-yl)-methanone]"
2,0.1 to 1,"CNC(=O)c1ccc2c(c1)N(c1ncc(-c3ccccc3F)cn1)CC21CC1 [Compound 61, 1-[5-(2-Fluorophenyl)-pyrimidin-2-yl]-N-methyl-spiro[1,2-dihydro-indole-3,1′-cyclopropane]-6-carboxylic acid amide]"
3,1 to 10,"O=C(c1ccc2c(c1)N(c1ncc(-c3ccccc3C3CC3)cn1)CC21CC1)N1CCOCC1 [Compound 62, [1-[5-(2-Cyclopropyl-phenyl)-pyrimidin-2-yl]-spiro[1,2-dihydro-indole-3,1′-cyclopropane]-6-yl]-morpholin-4-yl-methanone]"
4,< 0.1,"NC(=O)c1ccc(-c2cnc(N3CC4(CC4)c4ccc(C(=O)N5CCOCC5)cc43)nc2)cc1 [Compound 63, 4-[2-[6-(Morpholine-4-carbonyl)-spiro[1,2-dihydro-indole-3,1′-cyclopropane]-1-yl]-pyrimidin-5-yl]-benzamide]"
5,1 to 10,"O=C(c1ccc2c(c1)N(c1ncc(-c3ccccc3F)cn1)CC21CC1)N1CC2(COC2)C1 [Compound 64, [1-[5-(2-Fluorophenyl)-pyrimidin-2-yl]-spiro[1,2-dihydro-indole-3,1′-cyclopropane]-6-yl]-(2-oxa-6-azaspiro[3.3]heptan-6-yl)-methanone]"
6,< 0.1,"CN(C)C(=O)c1ccc(-c2cnc(N3CC4(CC4)c4ccc(C(=O)N5CCOCC5)cc43)nc2)c(F)c1 [Compound 65, 3-Fluoro-N,N-dimethyl-4-[2-[6-(morpholine-4-carbonyl)-spiro[1,2-dihydro-indole-3,1′-cyclopropane]-1-yl]-pyrimidin-5-yl]-benzamide]"
7,1 to 10,"O=C(c1ccc2c(c1)N(c1ncc(-c3ccccc3F)cn1)CC21CC1)N1CCN(C2CC2)CC1 [Compound 66, (4-Cyclopropyl-piperazin-1-yl)-[1-[5-(2-fluorophenyl)-pyrimidin-2-yl]-spiro[1,2-dihydro-indole-3,1′-cyclopropane]-6-yl]-methanone]"
8,0.1 to 1,"O=C(c1ccc2c(c1)N(c1ncc(-c3cc(OC(F)(F)F)ccc3F)cn1)CC21CC1)N1CCOCC1 [Compound 67, [1-[5-(2-Fluoro-5-(trifluoromethyloxy)-phenyl]-pyrimidin-2-yl]-spiro[1,2-dihydro-indole-3,1′-cyclopropane]-6-yl]-morpholin-4-yl-methanone]"
9,0.1 to 1,"O=C(c1ccc2c(c1)N(c1ncc(-c3ccccc3F)cn1)CC21CC1)N1CCC2(COC2)C1 [Compound 68, [1-[5-(2-Fluorophenyl)-pyrimidin-2-yl]-spiro[1,2-dihydro-indole-3,1′-cyclopropane]-6-yl]-(2-oxa-7-azaspiro[3.4]octan-7-yl)-methanone]"
10,0.1 to 1,"Cc1cccc(F)c1-c1cnc(N2CC3(CC3)c3ccc(C(=O)N4CCOCC4)cc32)nc1 [Compound 69, [1-[5-(2-Fluoro-6-methyl-phenyl)-pyrimidin-2-yl]-spiro[1,2-dihydro-indole-3,1′-cyclopropane]-6-yl]-morpholin-4-yl-methanone]"
11,0.1 to 1,"O=C(c1ccc2c(c1)N(c1ncc(-c3ccc(F)cc3F)cn1)CC21CC1)N1CCNCC1 [Compound 71, [1-[5-(2,4-Difluoro-phenyl)-pyrimidin-2-yl]-spiro[1,2-dihydro-indole-3,1′-cyclopropane]-6-yl]-piperazin-1-yl-methanone]"
12,< 0.1,"O=C(c1ccc2c(c1)N(c1ncc(-c3cc(OC(F)(F)F)ccc3F)cn1)CC21CC1)N1CCNCC1 [Compound 72, [1-[5-[2-Fluoro-5-(trifluoromethyloxy)-phenyl]-pyrimidin-2-yl]-spiro[1,2-dihydro-indole-3,1′-cyclopropane]-6-yl]-piperazin-1-yl-methanone]"
13,< 0.1,"COc1ccc(F)c(-c2cnc(N3CC4(CC4)c4ccc(C(=O)N5CCNCC5)cc43)nc2)c1 [Compound 73, [1-[5-(2-Fluoro-5-methoxy-phenyl)-pyrimidin-2-yl]-spiro[1,2-dihydro-indole-3,1′-cyclopropane]-6-yl]-piperazin-1-yl-methanone]"
14,1 to 10,"O=C(c1ccc2c(c1)N(c1ncc(-c3ccccc3F)cn1)CC21CC1)N1CCC2(CNC2)C1 [Compound 74, (2,6-Diazaspiro[3.4]octan-6-yl)-[1-[5-(2-fluorophenyl)-pyrimidin-2-yl]-spiro[1,2-dihydro-indole-3,1′-cyclopropane]-6-yl]-methanone]"
15,0.1 to 1,"COCCCNC(=O)c1ccc2c(c1)N(c1ncc(-c3ccccc3F)cn1)CC21CC1 [Compound 75, 1-[5-(2-Fluorophenyl)-pyrimidin-2-yl]-N-(3-methoxy-propyl)-spiro[1,2-dihydro-indole-3,1′-cyclopropane]-6-carboxylic acid amide]"
16,0.1 to 1,"N#CCCN1CCN(C(=O)c2ccc3c(c2)N(c2ncc(-c4ccccc4F)cn2)CC32CC2)CC1 [Compound 76, 3-[4-[1-[5-(2-Fluorophenyl)-pyrimidin-2-yl]-spiro[1,2-dihydro-indole-3,1′-cyclopropane]-6-carbonyl]-piperazin-1-yl]-propionitrile]"
17,0.1 to 1,"CN(C)[C@@H]1CCN(C(=O)c2ccc3c(c2)N(c2ncc(-c4ccccc4F)cn2)CC32CC2)C1 [Compound 77, [(3R)-3-Dimethylamino-pyrrolidin-1-yl]-[1-[5-(2-fluorophenyl)-pyrimidin-2-yl]-spiro[1,2-dihydro-indole-3,1′-cyclopropane]-6-yl]-methanone]"
18,0.1 to 1,"O=C(NCCN1CCCC1=O)c1ccc2c(c1)N(c1ncc(-c3ccccc3F)cn1)CC21CC1 [Compound 78, 1-[5-(2-Fluorophenyl)-pyrimidin-2-yl]-N-[2-(2-oxo-pyrrolidin-1-yl)-ethyl]-spiro[1,2-dihydro-indole-3,1′-cyclopropane]-6-carboxylic acid amide]"
19,1 to 10,"O=C(c1ccc2c(c1)N(c1ncc(-c3ccccc3F)cn1)CC21CC1)N1CCCC2(COC2)C1 [Compound 79, [1-[5-(2-Fluorophenyl)-pyrimidin-2-yl]-spiro[1,2-dihydro-indole-3,1′-cyclopropane]-6-yl]-(2-oxa-8-azaspiro[3.5]nonan-8-yl)-methanone]"
20,0.1 to 1,"O=C(c1ccc2c(c1)N(c1ncc(-c3ccccc3F)cn1)CC21CC1)N1CCCCC12COC2 [Compound 80, [1-[5-(2-Fluorophenyl)-pyrimidin-2-yl]-spiro[1,2-dihydro-indole-3,1′-cyclopropane]-6-yl]-(2-oxa-5-azaspiro[3.5]nonan-5-yl)-methanone]"
21,1 to 10,"O=C(NCC1CCOCC1)c1ccc2c(c1)N(c1ncc(-c3ccccc3F)cn1)CC21CC1 [Compound 82, 1-[5-(2-Fluorophenyl)-pyrimidin-2-yl]-N-(tetrahydro-pyran-4-yl-methyl)-spiro[1,2-dihydro-indole-3,1′-cyclopropane]-6-carboxylic acid amide]"
22,< 0.1,"O=C(c1ccc2c(c1)N(c1ncc(-c3ccccc3F)cn1)CC21CC1)N1CCCCC1 [Compound 84, [1-[5-(2-Fluorophenyl)-pyrimidin-2-yl]-spiro[1,2-dihydro-indole-3,1′-cyclopropane]-6-yl]-piperidin-1-yl-methanone]"
23,< 0.1,"CC(=O)N1CCNC(C(=O)c2ccc3c(c2)N(c2ncc(-c4ccccc4F)cn2)CC32CC2)C1 (stereo not drawn) [Compound 85, 1-[5-[1-[5-(2-Fluorophenyl)-pyrimidin-2-yl]-spiro[1,2-dihydro-indole-3,1′-cyclopropane]-6-carbonyl]-piperazin-1-yl]-ethanone]"
24,0.1 to 1,"CCN1CCN(C(=O)c2ccc3c(c2)N(c2ncc(-c4ccccc4F)cn2)CC32CC2)CC1 [Compound 86, (4-Ethyl-piperazin-1-yl)-[1-[5-(2-fluorophenyl)-pyrimidin-2-yl]-spiro[1,2-dihydro-indole-3,1′-cyclopropane]-6-yl]methanone]"
25,0.1 to 1,"CN(CC1OCCO1)C(=O)c1ccc2c(c1)N(c1ncc(-c3ccccc3F)cn1)CC21CC1 [Compound 87, N-([1,3]Dioxolan-2-yl-methyl)-1-[5-(2-fluorophenyl)-pyrimidin-2-yl]-N-methyl-spiro[1,2-dihydro-indole-3,1′-cyclopropane]-6-carboxylic acid amide]"
26,0.1 to 1,"CN(C(=O)c1ccc2c(c1)N(c1ncc(-c3ccccc3F)cn1)CC21CC1)c1ccncc1 [Compound 88, 1-[5-(2-Fluorophenyl)-pyrimidin-2-yl]-N-methyl-N-pyridin-4-yl-spiro[1,2-dihydro-indole-3,1′-cyclopropane]-6-carboxylic acid amide]"
27,0.1 to 1,"O=C(c1ccc2c(c1)N(c1ncc(-c3ccccc3F)cn1)CC21CC1)N1CCC1 [Compound 89, (Azetidin-1-yl)-[1-[5-(2-fluorophenyl)-pyrimidin-2-yl]-spiro[1,2-dihydro-indole-3,1′-cyclopropane]-6-yl]-methanone]"
